Experiment [1] has as its target T1, polycystin-2 channels (Mus musculus, UniProt O35245).
T1 construct: the mouse channel orthologue under endogenous expression in the kidney collecting duct; endogenous in cells; host or cells: primary inner medullary collecting duct (pIMCD) cells of ARL13B-EGFP mice
T1 sequence (O35245 1-966): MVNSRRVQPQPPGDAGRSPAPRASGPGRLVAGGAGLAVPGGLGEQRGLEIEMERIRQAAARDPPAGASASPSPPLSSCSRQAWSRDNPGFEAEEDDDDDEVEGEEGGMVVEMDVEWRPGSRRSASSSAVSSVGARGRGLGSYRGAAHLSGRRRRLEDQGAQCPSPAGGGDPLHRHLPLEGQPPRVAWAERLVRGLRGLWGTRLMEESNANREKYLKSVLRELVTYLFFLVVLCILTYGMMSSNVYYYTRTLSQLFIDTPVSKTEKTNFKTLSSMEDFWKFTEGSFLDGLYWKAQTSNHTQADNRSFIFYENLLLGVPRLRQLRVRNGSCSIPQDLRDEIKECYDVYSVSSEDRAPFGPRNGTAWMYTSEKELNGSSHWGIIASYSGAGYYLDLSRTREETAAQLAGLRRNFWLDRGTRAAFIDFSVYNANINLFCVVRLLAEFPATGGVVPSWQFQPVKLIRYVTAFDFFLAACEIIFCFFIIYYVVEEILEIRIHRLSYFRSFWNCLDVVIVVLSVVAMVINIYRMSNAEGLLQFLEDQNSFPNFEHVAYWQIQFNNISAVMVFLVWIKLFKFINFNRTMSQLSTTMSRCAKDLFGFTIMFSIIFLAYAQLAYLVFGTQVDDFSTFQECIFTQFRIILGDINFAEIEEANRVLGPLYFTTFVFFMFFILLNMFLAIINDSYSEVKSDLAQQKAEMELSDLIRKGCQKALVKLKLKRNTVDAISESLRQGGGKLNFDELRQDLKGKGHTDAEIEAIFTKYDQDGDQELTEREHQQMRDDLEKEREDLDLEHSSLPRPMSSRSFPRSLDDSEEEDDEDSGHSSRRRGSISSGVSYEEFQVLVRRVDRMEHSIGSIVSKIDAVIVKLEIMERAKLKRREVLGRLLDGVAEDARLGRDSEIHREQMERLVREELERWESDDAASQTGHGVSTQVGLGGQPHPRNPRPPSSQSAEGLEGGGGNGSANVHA
The experiment in a line: Inside-out cilia patch of pIMCD cells, calcium opening of polycystin-2 channels. In kind it is cell-based. Particulars: Pkd2+/+ mice; read-out: EC50, potency of calcium opening polycystin-2 channels. On the procedure: (§1) Cell culture of primary inner medullary collecting duct cells and immortalized cell lines. Primary inner medullary collecting ducts cells (pIMCD) were isolated from WT or Pkd2^del-Z/del-Z mice co-expressing the ARL13B-EGFP cilia reporter using the previously described method (Liu et al., 2018). Briefly, inner medullae were removed from the kidney and disassociated using a Dulbecco's phosphate buffered solution (DPBS) containing 2 mg/ml collagenase A and 1 mg/ml hyaluronidase. After mechanical disassociation on ice, medullary cells were cultured in Dulbecco's modified essential medium (DMEM) supplemented with 10% fetal bovine serum (FBS) and 100 units/ml penicillin/100 μg/ml streptomycin. Cilia were patched from cells within 6 days after isolation and within one passage. HEK PKD2^Null cell lines were generated using the CRISPR/Cas9 gene editing kit available from Addgene and authenticated using PCR analysis, as previously described (Liu et al., 2018). […]
(§2) Electrophysiology. The electrophysiologist was blinded by a third party in the laboratory, where test groups were assigned a letter to conceal the genetic identity of the cells being evaluated. […] Ciliary ion currents were recorded using borosilicate glass electrodes polished to resistances of 14-23 MΩ using the cilium patch method previously described (Vien et al., 2020). Single channel currents measured in the inside-out configuration were recorded in symmetrical sodium concentrations. […] Calcium was buffered with 5 EGTA (ethylene glycol-bis(o-aminoethyl ether)-N,N,N′,N′-tetraacetic acid), 5 Na4-BAPTA (Glycine, N, N′-[1,2-ethanediylbis(oxy-2,1-phenylene)]bis[N-(carboxymethyl)]-,tetrasodium) and 0.5 EDTA […]; free calcium was calculated using Maxchilator and titration of 1 M CaCl2) solution (Bers et al., 2010); pH was adjusted to 7.3 using NaOH. […] Whole cell currents used to measure CDD were also recorded in symmetrical sodium concentration, placing the internal recording solution in the pipette electrode and the external recording solution in the bath. […]

The test system of experiment [2] is polycystin-2 channels. Described as above. It counts as cell-based, mouse. Particulars: Pkd2+/del-Z mice; read-out: EC50, potency of calcium opening polycystin-2 channels. On the procedure:
as §1, §2

In general, EC50 refers to the concentration giving half of the maximal effect.

SMILES strings stand for the structures.

On to `[Ca+2]` [Ca^2+, calcium], for which the EC50 at polycystin-2 channels [1] came to 1200 ± 400 nM; with polycystin-2 channels [2], 1400 ± 400 nM.

The values are drawn from patent US20210369677A1, “SMALL MOLECULE ACTIVATORS OF POLYCYSTIN-2 (PKD2) AND USES THEREOF” (Northwestern University, priority 2020, published 2021).
